The target of data set [1] is T1, Cytochrome P450 1A2 (Homo sapiens, UniProt P05177).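 Further: PubChem cytochrome P450 panel assay, CYP1A2 panel member.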
T1 sequence (P05177 whole entry): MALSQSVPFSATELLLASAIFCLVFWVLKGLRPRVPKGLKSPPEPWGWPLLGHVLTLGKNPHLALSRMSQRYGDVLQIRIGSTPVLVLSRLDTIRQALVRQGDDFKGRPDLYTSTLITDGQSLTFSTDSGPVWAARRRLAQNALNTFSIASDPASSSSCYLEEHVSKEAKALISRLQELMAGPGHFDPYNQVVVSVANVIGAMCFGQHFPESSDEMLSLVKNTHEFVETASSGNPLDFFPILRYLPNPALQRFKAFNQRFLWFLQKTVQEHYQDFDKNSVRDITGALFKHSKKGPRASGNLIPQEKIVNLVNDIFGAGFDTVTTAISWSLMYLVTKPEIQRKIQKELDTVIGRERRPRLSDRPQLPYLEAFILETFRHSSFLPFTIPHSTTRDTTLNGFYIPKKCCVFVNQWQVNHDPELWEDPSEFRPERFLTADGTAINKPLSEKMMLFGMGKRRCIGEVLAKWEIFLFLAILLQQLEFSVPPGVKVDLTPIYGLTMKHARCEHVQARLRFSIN

The target of data set [2] is Cytochrome P450 2C9 (Homo sapiens, UniProt P11712).
The target of data set [3] is Cytochrome P450 2D6 (Homo sapiens, UniProt P10635).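 Further: CYP2D6 member of a cytochrome P450 panel assay.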
The target in data set [4] is T2, Rac GTPase-activating protein 1 (Homo sapiens, UniProt Q9H0H5).
T2 sequence (Q9H0H5 whole entry): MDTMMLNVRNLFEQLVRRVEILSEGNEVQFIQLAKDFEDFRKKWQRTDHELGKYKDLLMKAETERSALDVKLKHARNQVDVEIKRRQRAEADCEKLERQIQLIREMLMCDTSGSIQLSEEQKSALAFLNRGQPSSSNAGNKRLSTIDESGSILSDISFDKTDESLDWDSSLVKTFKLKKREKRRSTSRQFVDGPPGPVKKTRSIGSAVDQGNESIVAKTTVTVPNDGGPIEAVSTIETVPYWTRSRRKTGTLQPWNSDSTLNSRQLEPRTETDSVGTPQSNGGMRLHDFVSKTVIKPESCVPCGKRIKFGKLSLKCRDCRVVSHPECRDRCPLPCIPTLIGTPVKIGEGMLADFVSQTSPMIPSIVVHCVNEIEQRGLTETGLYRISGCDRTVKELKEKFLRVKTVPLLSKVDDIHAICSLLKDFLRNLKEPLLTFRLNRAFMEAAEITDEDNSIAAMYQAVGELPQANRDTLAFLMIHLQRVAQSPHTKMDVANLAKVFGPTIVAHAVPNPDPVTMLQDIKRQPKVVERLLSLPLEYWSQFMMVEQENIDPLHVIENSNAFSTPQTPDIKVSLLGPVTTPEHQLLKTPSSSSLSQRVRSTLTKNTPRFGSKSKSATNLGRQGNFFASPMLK
Description: blockers of MgcRacGAP-driven Rac1 GTP hydrolysis – biochemical, ADP Hunter fluorescence, primary and confirmatory, confirmation (AID 624330). The class given is functional.

The target in data set [5] is Cytochrome P450 2C19 (Homo sapiens, UniProt P33261). Briefly: Cytochrome panel assay with activity outcomes. Panel member name: p450-cyp2c19 Compounds with AC50 equal or less than 10 uM are considered active. The class given is functional.
Data set [6] in a line: Trypanosoma cruzi growth suppression in host cells – NIH3T3 host cells, beta-gal luminescence, confirmation (AID 2044).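 Further: intracellular parasites grown in NIH/3T3 mouse fibroblasts as host cells; luminescent beta-galactosidase reporter signal from transgenic T. cruzi replicating inside host cells; inhibitors lower the luminescence signal.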 In kind it is functional, cell-based.
A short description of data set [7]: NIH3T3 cell viability loss – ATP luminescence, mouse fibroblasts, counter-screen, dose response (AID 2010).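 Further: cells exposed to compound for about 90 hours before reading.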 The class given is functional, cell-based.

The structures appear in SMILES notation. Calls of active or inactive are those of the source.

Cytochrome P450 2C19, sequence (P33261 whole entry): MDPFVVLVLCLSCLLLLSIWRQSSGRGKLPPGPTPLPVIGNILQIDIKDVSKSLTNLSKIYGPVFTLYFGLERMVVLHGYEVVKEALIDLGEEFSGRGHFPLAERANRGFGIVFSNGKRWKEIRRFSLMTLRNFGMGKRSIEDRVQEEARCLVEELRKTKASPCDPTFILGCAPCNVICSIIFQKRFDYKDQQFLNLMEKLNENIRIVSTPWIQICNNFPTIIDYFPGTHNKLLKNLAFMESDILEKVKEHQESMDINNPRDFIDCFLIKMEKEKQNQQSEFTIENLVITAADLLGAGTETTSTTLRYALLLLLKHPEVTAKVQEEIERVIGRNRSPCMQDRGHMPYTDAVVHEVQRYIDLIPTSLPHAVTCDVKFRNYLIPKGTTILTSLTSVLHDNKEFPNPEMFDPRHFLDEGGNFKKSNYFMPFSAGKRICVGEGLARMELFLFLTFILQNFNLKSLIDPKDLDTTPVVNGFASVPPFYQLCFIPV
Cytochrome P450 2D6, sequence (P10635 whole entry): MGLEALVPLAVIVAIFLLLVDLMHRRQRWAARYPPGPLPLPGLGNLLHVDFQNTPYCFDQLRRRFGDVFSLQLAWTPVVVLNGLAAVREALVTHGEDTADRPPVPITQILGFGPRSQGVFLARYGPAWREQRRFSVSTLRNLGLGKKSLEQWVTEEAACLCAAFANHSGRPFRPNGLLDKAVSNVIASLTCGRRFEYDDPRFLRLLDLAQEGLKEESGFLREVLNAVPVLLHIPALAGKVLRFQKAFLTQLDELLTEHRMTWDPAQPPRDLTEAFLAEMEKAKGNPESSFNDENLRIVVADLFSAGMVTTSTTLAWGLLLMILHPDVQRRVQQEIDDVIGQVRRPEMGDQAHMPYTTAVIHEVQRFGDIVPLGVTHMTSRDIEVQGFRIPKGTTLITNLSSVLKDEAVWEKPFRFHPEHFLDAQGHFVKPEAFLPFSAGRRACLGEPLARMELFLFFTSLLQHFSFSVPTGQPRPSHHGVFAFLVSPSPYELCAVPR
Cytochrome P450 2C9, sequence (P11712 whole entry): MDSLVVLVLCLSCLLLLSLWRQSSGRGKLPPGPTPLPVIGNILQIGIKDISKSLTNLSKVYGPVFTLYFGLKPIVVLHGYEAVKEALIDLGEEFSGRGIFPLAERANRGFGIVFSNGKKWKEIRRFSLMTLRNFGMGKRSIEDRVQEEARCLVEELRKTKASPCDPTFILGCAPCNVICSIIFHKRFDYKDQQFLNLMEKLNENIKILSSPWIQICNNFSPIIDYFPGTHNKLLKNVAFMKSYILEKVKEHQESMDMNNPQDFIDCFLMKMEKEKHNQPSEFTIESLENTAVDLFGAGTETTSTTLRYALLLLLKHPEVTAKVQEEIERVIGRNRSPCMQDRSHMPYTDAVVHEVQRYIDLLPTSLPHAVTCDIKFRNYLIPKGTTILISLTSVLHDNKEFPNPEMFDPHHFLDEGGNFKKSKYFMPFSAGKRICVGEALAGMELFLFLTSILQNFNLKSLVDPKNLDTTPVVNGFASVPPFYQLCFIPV

`O=C(c1ccncc1)N1CCC2(CC1)CCN(c1cccc(-c3ccccc3)c1)CC2`: the values for the AC50 in data set [1] and in data set [2] were 20 µM (inconclusive) and 12.6 µM (inconclusive), respectively.

As to `Cc1cc(C)cc(-n2c(C)cc(C=C(C#N)C#N)c2C)c1`, the AC50 in data set [2] is 2.51 µM (inconclusive).

`Cn1cccc1C(=O)N1CCC2(CC1)CCN(c1ccncc1)CC2`: the figures for the AC50 in data set [3] and in data set [1] were 25.1 µM (inconclusive) and 15.8 µM (inconclusive), respectively. For `CC(C)Oc1ccc(OCCn2c(S)nc3c(N)ncnc32)cc1`, in data set [4], the IC50 was 95.3 µM (active). On to `c1ccc2c(Nc3ccncc3)nc(-c3ccoc3)nc2c1`, for which the AC50 in data set [3] was 15.8 µM (inconclusive). Regarding `C[C@@H](C(=O)Nc1ccc2ccccc2c1)[C@@H]1C[C@@]1(C)[C@@H](NS(=O)(=O)c1ccc(-c2ccccc2)cc1)c1ccccc1`, the AC50 in data set [1] was 12.6 µM (inconclusive).

With `COc1ccc(NCc2nnc(SCc3ccccc3)n2-c2ccc(OC)cc2)cc1`, the AC50 in data set [1] was 17.8 µM (inconclusive); in data set [2], 12.6 µM (inconclusive). As for `COc1ccccc1CNc1cc(-c2cccnc2)ncn1`, in data set [5] (read-out: AC50), the AC50 was 15.8 µM (inconclusive). Regarding `Cc1cccn2c(NCc3ccc4c(c3)OCO4)c(-c3ccc(O)cc3)nc12`, the IC50 in data set [4] is 68.7 µM (active). Take `COc1ccc(Cc2nnc(NC(=O)c3ccco3)s2)cc1`: the AC50 in data set [1] was 11.2 µM (inconclusive). Take `Cc1ccc2c(CC(=O)OCc3cc(=O)n4c(n3)sc3ccccc34)coc2c1`: the AC50 in data set [3] is 31.6 µM (inconclusive). As to `O=C(c1cnccn1)N1CCC2(CCCN(c3cccc(-c4ccccc4)c3)C2)CC1`, the AC50 in data set [5] (read-out: AC50) was 7.94 µM (inconclusive). For `c1ccc2c(c1)ncn2Cc1nnc2sc(-c3ccc4c(c3)OCO4)nn12`, the results for the AC50 in data set [3], in data set [1] and in data set [5] (read-out: AC50) were 15.8 µM (inconclusive), 1.12 µM (inconclusive) and 15.8 µM (inconclusive), respectively. Take `COc1ccc(-n2ncc3c(NCC4CCCO4)ncnc32)cc1` (stereo not drawn): the values for the AC50 in data set [2] and in data set [5] (read-out: AC50) were 12.6 µM (inconclusive) and 8.91 µM (inconclusive), respectively. With `Cc1ccccc1-c1cncnc1NCCN1CCOCC1`, the AC50 in data set [3] is 39.8 µM (inconclusive); in data set [1], 15.8 µM (inconclusive). Turning to `COC(=O)C1=C(N)N(c2ccccc2C(F)(F)F)C2=C(C(=O)CCC2)C1c1ccc2c(c1)OCO2` (stereo not drawn), the EC50 in data set [6] is 1.24 µM (active); in data set [7], > 60 µM (not active). The AC50 in data set [1] is 31.6 µM (inconclusive). Take `COc1cc(CNCc2cc(OC)c(OC)c(OC)c2)cc(OC)c1`: the IC50 in data set [4] was 203 µM (active).

For the molecule `O=C(CSc1nc2ccccc2s1)NNC(=S)Nc1ccc(Br)cc1`, the AC50 in data set [3] is 3.55 µM (inconclusive). As to `O=C(ON=C1CCN(S(=O)(=O)c2ccccc2)CC1)c1ccccc1`, the AC50 in data set [2] was 31.6 µM (inconclusive). On the same count and under the same terms, the figure for `COC(=O)CSc1nnc(CNc2ccc(Cl)cc2)n1-c1ccccc1` is 22.4 µM (inconclusive). Consider `CN(C)C(=O)c1ccc(-c2nc(NCc3ccccc3)c3ccccc3n2)cc1`, for which the AC50 is 39.8 µM (inconclusive) in data set [3] and 25.1 µM (inconclusive) in data set [5] (read-out: AC50). `CC(C(=O)NCC(=O)Nc1ccc(F)c(F)c1F)N1CCN(c2ccc(O)cc2)CC1` (stereo not drawn): the half-maximal inhibitory concentration (IC50) in data set [4] was 42.5 µM (active). Take `Nc1nc(N)c(CCCCc2ccccc2)c(N)n1`: the AC50 in data set [3] was 3.98 µM (inconclusive).

Consider `Fc1ccc(-c2ccnc3nc(N4CCOCC4)nn23)cc1`, for which the AC50 in data set [5] (read-out: AC50) is 3.55 µM (inconclusive). On to `COc1cc(-c2nc3cnccn3c2Nc2c(C)cccc2C)ccc1O`, for which the IC50 in data set [4] was 46.4 µM (active). Same read-out and setting: the figure for `Cc1cc(OCc2nc3ccccc3s2)ccc1N` is 60.7 µM (active).

On to `Cn1c(=O)c(C(=O)CN2CCOCC2)c(N)n(Cc2ccccc2)c1=O`, for which the AC50 is 7.94 µM (inconclusive) in data set [3] and 39.8 µM (inconclusive) in data set [5] (read-out: AC50). `Cc1ccc(C(=O)Oc2cc(C)n(C)c(=O)c2)cc1`: the figures for the AC50 in data set [1] and in data set [2] were 25.1 µM (inconclusive) and 11.2 µM (inconclusive), respectively. Turning to `CC(NC(=O)c1ccccc1)c1nc2ccccc2n1Cc1ccccc1F` (stereo not drawn), the AC50 in data set [1] is 28.2 µM (inconclusive). `CN(CCCCCCN(C)Cc1ccccc1O)Cc1ccccc1O`: the IC50 in data set [4] is 73.6 µM (active). As to `Cc1noc(C)c1-c1cc(N(C)Cc2ccco2)ncn1`, in data set [5] (read-out: AC50), the half-maximal activity concentration (AC50) was 15.8 µM (inconclusive). Turning to `COC(=O)[C@@]1(Cc2ccccc2)[C@H]2c3cc(C(=O)N4CCCC4)n(Cc4ccccn4)c3C[C@H]2CN1C(=O)c1ccccc1`, the AC50 in data set [3] was 39.8 µM (inconclusive). Same read-out and setting: then `Cc1ccccc1-c1cc(NCc2ccccc2)ncn1`, with 31.6 µM (inconclusive); and `CN(C)c1ccc(-c2cncnc2-n2ccnc2)cc1`, with 39.8 µM (inconclusive). `COc1ccccc1NC(=O)CN1CCN(CC(=O)Nc2ccc(OCc3ccccc3)cc2)CC1`: the AC50 was 20 µM (inconclusive) in data set [3] and 10 µM (inconclusive) in data set [1]. For `Cc1cccn2c(S)nnc12`, the IC50 in data set [4] is 17.2 µM (active).

As to `COc1ccc(C(=O)NC2CC3CCCC(C2)N3CC(C)C)cc1OC` (stereo not drawn), the AC50 in data set [2] is 22.4 µM (inconclusive). Turning to `O=C(NCc1ccccc1)/C(=C\c1ccc(O)cc1)NC(=O)c1ccco1`, the half-inhibitory concentration (IC50) in data set [4] was 141 µM (active). Regarding `CN1CCN(C(=O)C(C(=O)c2ccc(F)cc2)n2ccccc2=O)CC1` (stereo not drawn), the concentration at half-maximal activity (AC50) result in data set [5] is recorded as “inconclusive”. For `CCOc1ccccc1C1C(C(N)=O)=C(C)Nc2nc(-c3ccc(OC)cc3)nn21` (stereo not drawn), the half-maximal activity concentration (AC50) in data set [3] is 1 µM (inconclusive); in data set [1], 15.8 µM (inconclusive); in data set [2], 15.8 µM (inconclusive). In the case of `Cn1cc(C(=O)c2cccc(Cl)c2Cl)cc1C(=O)O`, the AC50 in data set [2] was 31.6 µM (inconclusive). Consider `COc1cc(/C=N/NC(=O)c2[nH]nc3c2CCc2ccccc2-3)ccc1O`, for which the IC50 in data set [4] was 54.3 µM (active). As for `COc1cccc(/C=N/NC(=O)c2c(-c3ccccc3)noc2C)c1`, the AC50 in data set [3] was 17.8 µM (inconclusive). Regarding `COc1cc(/C=N/NC(=O)c2cccnc2)ccc1OC(=O)c1ccco1`, the AC50 in data set [2] was 28.2 µM (inconclusive); in data set [5] (read-out: AC50), 8.91 µM (inconclusive). With `COc1cc(/C=N/NC(=O)C2CCN(CC(O)COCc3ccccc3)CC2)ccc1O` (stereo not drawn), in data set [4], the IC50 was 31.5 µM (active).

For `O=c1cc(-c2ccc(O)c(O)c2)oc2cc(O)c([C@@H]3O[C@H](CO)[C@@H](O)[C@H](O)[C@H]3O)c(O)c12` [ISOORIENTIN], the IC50 in data set [4] was 40.9 µM (active). For `COc1ccccc1N1CCN(CCN(C(=O)C2CCCCC2)c2ccccn2)CC1` [WAY-100,635], in data set [3], the AC50 is 31.6 µM (inconclusive).

The record behind these values is ChEMBL document CHEMBL1201862, “PubChem BioAssay data set” (2004).
